# Experimental data published in patent US12544348B2, “Methods for treating APOE4/4-associated disorders” (The Regents of the University of California, priority 2018, dated 2026).
# Test system: apoE4/4-iPSC-derived human neurons
# Assay: RNA-Seq analysis of apoE4/4-iPSC-derived human neurons
# Type: cell-based
# Conditions: 10 μM, 6 hours
# From the text: Neuronal Differentiation of Human apoE4/4-iPSCs. Human iPS lines were generated from skin fibroblasts of a subject with apoE4/4 genotype and were maintained under feeder-free conditions in mTeSR1 medium (STEMCELL Technologies). Human apoE4/4-iPSCs were routinely passaged at 1:2-1:4 by brief treatment with Accutase (Millipore) and scraping. The human iPSC protocol was approved by the Committee on Human Research at the University of California. The apoE4/4-iPSCs were differentiated into neurons as reported with modifications. iPSCs were treated with collagenase IV (Stem Cell Technologies) and grown in suspension as embryoid bodies in hES medium without bFGF. The medium was replaced every day for 5 days. On day 5, embryoid bodies were grown in Neural Induction Medium containing Dulbecco's modified Eagle's medium/F12 and Neurobasal Medium (1:1, Thermo Fisher), 1% N2 Supplement (Life Technologies), 1% B27 Supplement (Life Technologies), nonessential amino acids, and 0.5% penicillin/streptomycin (Life Technologies) supplemented with inhibitors of the TGF-β receptor (SB431542, Stemgent; 5 μM) and the bone morphogenetic protein receptor (LDN-193189, Stemgent; 0.25 μM). On day 7, spheres were transferred to wells coated with Matrigel (BD Biosciences) and grown in Neural Progenitor Medium, which consisted of Neural Induction Medium without SB and LDN, but containing 10 ng/ml bFGF (PeproTech), 10 ng/ml epidermal growth factor (EGF) (PeproTech), and 2 μg/ml heparin (Sigma). Attached neuroepithelial cells were fed every other day for 7 days. Neural rosette structures appeared by around day 15, were lifted off the plate, and grown in suspension in Neural Progenitor Medium to form neurospheres. For neuronal differentiation, neurospheres were dissociated with Accutase and plated on culture plates coated with 100 μg/ml poly-1-ornithine (Sigma) and 10 μg/ml laminin (Sigma). Neuronal cultures were maintained in Neural Differentiation Medium consisting of Neural Progenitor Medium, brain-derived neurotrophic factor (10 ng/ml; PeproTech), and glial cell-derived growth factor (10 ng/ml; PeproTech) without bFGF, EGF, or heparin. Neurons were observed after several days and were further differentiated for 30 days or longer. Most of the experiments were performed on the neuronal culture differentiated beyond 8 weeks. This culture condition generated neuronal cells with 75±4% vGLUT^+ total glutamatergic excitatory neurons, 15±3% GABA^+ GABAergic inhibitory neurons, and 5±2% TH^+ dopaminergic neurons. RNA-Seq Analysis of Human ApoE4/4-iPS-derived Neurons. Total RNA was extracted and purified from apoE4/4-iPSC-derived human neurons with the Qiagen RNeasy Micro kit, which included a DNase treatment. cDNA was generated from full-length RNA (50 ng per sample) with the NuGEN RNA-Seq V2 kit, which uses the single primer isothermal amplification method to deplete ribosomal RNA, and sheared by Covaris to yield fragments of uniform size. The NuGen Ultralow system V2 was used for adding adapters and for barcoding and amplification. The resulting RNA libraries were purified with Agencourt XP magnetic beads, and quantified by qPCR after quality control with an Agilent Bioanalyzer. The libraries were pooled and sequenced with a HiSeq 4000 instrument (Illumina) for single-end (SE50) sequencing. Sequence data were aligned with the STAR short read aligner and counts per feature were obtained with the featureCounts function from the Subread package. […]
# [1] = vs vehicle, P<0.05 by Monte Carlo Simulation
compound,measurement,setting,value
"CCCCNc1cc(C(=O)O)cc(S(N)(=O)=O)c1Oc1ccccc1 [bumetanide, 3-(butylamino)-4-phenoxy-5-sulfamoylbenzoic acid]",number of pathways also shared with the apoE4/4 AD signature from humans,,4
same,number of pathways overlapping with mouse hippocampal neuronal cells exhibiting the predicted drug effect,,14
same,number of significantly perturbed pathways,,27
same,shift in FC rank of genes downregulated in apoE4/4 AD,[1],shifted upward towards lower rank numbers
same,shift in FC rank of genes upregulated in apoE4/4 AD,[1],shifted downward towards higher rank numbers
